Data taken from US8232284B2, “Heteroaryloxy quinazoline derivative” (MSD K. K., priority 2007, dated 2012).
Like-named read-outs stand apart in the source and are kept apart here.

Key:
male beagles [1] = test: Pharmacological Test Example 2: drug efficacy test in dogs (plasma glucose level AUC); format: in vivo; conditions: for Percentage reduction (%) in plasma glucose level AUC: male beagles fasted overnight, oral 1 mg/kg in 0.5% methyl cellulose, compared to control group up to 4 hours after administration
Procedure: From the cephalic vein of male beagles fasted overnight (10.4-13.7 kg body weight), blood was collected prior to administration, followed by oral administration of the test drug suspended in a 0.5% methyl cellulose solution (1 mg/kg in both of the compounds of Example A and Example 18), while a 0.5% methyl cellulose solution was orally administered to the control group. The blood was collected every 0.5 or 1 hour after the administration of the test drug. Plasma was separated from the obtained blood to determine a plasma glucose level using Determina-GL-E (Kyowa Medics). Percentage reductions in plasma glucose level AUC compared to the control group up to 4 hours after the administration were described below.

male beagles [2] = test: Pharmacological Test Example 3: drug efficacy test in dogs (plasma glucose level AUC); format: in vivo; conditions: male beagles fasted overnight; oral 1 mg/kg in 0.5% methyl cellulose; compared to control group up to 4 hours after administration
Procedure: From the cephalic vein of male beagles fasted overnight (8.5-13.7 kg body weight), blood was collected prior to administration, followed by oral administration of the test drug suspended in a 0.5% methyl cellulose solution (1 mg/kg in both of Examples 30 and 31), while a 0.5% methyl cellulose solution was orally administered to the control group. The blood was collected every 0.5 or 1 hour after the administration of the test drug. Plasma was separated from the obtained blood to determine a plasma glucose level using Determina-GL-E (Kyowa Medics).
Percentage reductions in plasma glucose level AUC compared to the control group up to 4 hours after the administration were described below.

[3] = biological target: T1, recombinant human liver GK (Homo sapiens, UniProt P35557); test: Glucokinase-activating effect (Thio-NADH coupled assay with G6PDH, 2.5 mM glucose); format: biochemical
T1 construct: made in house; host or cells: E. coli
T1 sequence (P35557 1-466 isoform P35557-2): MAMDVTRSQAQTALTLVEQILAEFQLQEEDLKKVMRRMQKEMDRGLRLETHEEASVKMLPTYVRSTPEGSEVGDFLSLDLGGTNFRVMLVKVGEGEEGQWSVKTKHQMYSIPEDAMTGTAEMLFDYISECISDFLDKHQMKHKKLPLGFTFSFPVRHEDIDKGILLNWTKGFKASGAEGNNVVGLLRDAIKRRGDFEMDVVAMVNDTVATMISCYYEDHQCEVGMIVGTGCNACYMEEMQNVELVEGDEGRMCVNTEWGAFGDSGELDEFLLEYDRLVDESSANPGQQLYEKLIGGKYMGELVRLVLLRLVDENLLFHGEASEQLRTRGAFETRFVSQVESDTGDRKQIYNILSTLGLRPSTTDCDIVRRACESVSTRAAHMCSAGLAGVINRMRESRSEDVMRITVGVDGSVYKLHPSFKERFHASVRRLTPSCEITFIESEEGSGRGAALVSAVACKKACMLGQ
From the text: The excellent glucokinase-activating effect of the compounds of the formula (I) may be determined by a method described in literature (for example, Diabetes, Vol. 45, pp. 1671-1677, 1996), or in accordance with it.
The glucokinase activity may be determined not by directly measuring glucose-6-phosphate but by measuring the level of Thio-NADH, which is produced when a reporter enzyme, glucose-6-phosphate dehydrogenase produces phosphogluconolactone from glucose-6-phosphate, and based on the level, the degree of glucokinase activation by the compound tested may be determined
In this assay, used was a recombinant human liver GK, which was expressed by E. coli as a FLAG fusion protein therein and was purified by ANTIFLAG M2 AFFINITY GEL (Sigma).
Using a flat-bottomed 96-well plate, the assay was carried out at 30° C. 69 μl of an assay buffer (25 mM Hepes Buffer/pH=7.2, 2 mM MgCl2, 1 mM ATP, 0.5 mM TNAD, 1 mM dithiothreitol) was put into the plate, and 1 μl of a DMSO solution of the compound or DMSO alone as a control was added thereto. Next, 20 μl of an enzyme mixture (FLAG-GK, 20 U/ml G6PDH) cooled in ice was added to it, and 10 μl of a substrate, 25 mM glucose was added to it, and the reaction was initiated (final glucose concentration=2.5 mM).
After the start of the reaction, the increase in the absorbance at 405 nm was measured for 12 minutes at intervals of 30 seconds, and the increase for the first 5 minutes was used for assessing the compound tested. FLAG-GK was added so that the absorbance increase after 5 minutes in the presence of 1% DMSO could be from 0.04 to 0.06.
The OD level of the DMSO control was set as 100%; and the OD level of the test compound at different concentrations was determined. From the OD level at each concentration, Emax (%) and EC50 (μM) were computed and used as the index of the GK-activating potency of the compound.
The comparative test was conducted to compare the compound of example 18, 31 and 32 in this invention with the compound (A) in the patent document 1. The test method in vitro was similar to pharmacological experiment 1 (glucokinase-activating effect).

[4] = comparative test in vitro, similar to pharmacological experiment 1, read-out: GK activity EC50

Row | Structure (SMILES) | drug efficacy in the dogs (male beagles [1]; in vivo tests in dogs, summary statement) | Percentage reduction (%) in plasma glucose level AUC (male beagles [1]) [%] | Percentage reduction (%) in plasma glucose level AUC (male beagles [2]) [%] | EC50 [3, 4] [nM] | EC50 ([3]; final glucose concentration 2.5 mM, 30° C., read-out: EC50) [nM]
1 | Cc1cnc(Nc2ncnc3ccc(Oc4ncccc4Cl)cc23)cn1 [Compound A] | no drug efficacy | −1 | −1 |  | 
2 | Cc1cnc(Nc2ncnc3ccc(Oc4ccc(OCCN(C)C)cn4)cc23)cn1 [Example 31, 6-({5-[2-(dimethylamino)ethoxy]pyridin-2-yl}oxy)-N-(5-methylpyrazin-2-yl)quinazoline-4-amine] |  |  | 7.9 | 440 | 
3 | CCNCCOc1cnc(Oc2ccc3ncnc(Nc4ccn(C)n4)c3c2)c(Cl)c1.Cl [Example 18, 6-({3-chloro-5-[2-(ethylamino)ethoxy]pyridin-2-yl}oxy)-N-(1-methyl-1H-pyrazol-3-yl)quinazoline-4-amine hydrochloride] |  | 26 |  | 30 | 
4 | CNCCOc1cnc(Oc2ccc3ncnc(Nc4cnc(C)cn4)c3c2)c(Cl)c1.Cl [Example 32, 6-({3-chloro-5-[2-(methylamino)ethoxy]pyridin-2-yl}oxy)-N-(5-methylpyrazin-2-yl)quinazoline-4-amine hydrochloride] |  |  | 17.5 | 40 | 
5 | CN(C)CCN(C)C(=O)c1cnc(Oc2ccc3ncnc(Nc4ccn(C)n4)c3c2)c(Cl)c1 [Example 65, 5-chloro-N-[2-(dimethylamino)ethyl]-N-methyl-6-({4-[(1-methyl-1H-pyrazol-3-yl)amino]quinazolin-6-yl}oxy)nicotinamide] |  |  |  |  | 410
